Test results taken from US20120245107A1, “METHODS OF REDUCING THE PROLIFERATION AND VIABLILITY OF MICROBIAL AGENTS” (Targeted Delivery Technologies Limited, priority 2009, published 2012).
In brackets after ≈: the same amount, converted by molar mass. Read-outs that look alike come from different tables or passages of the source. One block for each compound: values may come before it.

What was measured:
Assay type in all cases: cell-based
Aspergillus flavus = experiment: MIC100 of voriconazole and terbinafine formulation individually and in combination, FICI; details: for MIC100, Combination: concentration of the agent when voriconazole and terbinafine formulation are used in combination; for MIC: Aspergillus flavus, agent used individually, read-out: MIC100, Individual
Description: (§1) MIC testing was performed according to the CLSI M38A2 standard for the susceptibility testing of dermatophytes developed at the Center for Medical Mycology (See, Ghannoum et al., 2004, J Clin Microbial. 42(7): 2977-2979 CLSI, Reference Method for Broth Dilution Antifungal Susceptibility Testing of Filamentous Fungi: Approved Standard-Second Edition. CLSI document M38-A2 [ISBN 1-56238-668-9]. CLSI, 940 West Valley Road, Suite 1400, Wayne, Pa. 19087-1898 USA, 2008). Briefly, RPMI was the test medium, incubation temperature and time was 35° C. and 24 hours or 48 hours, respectively, and the inoculum size was 1-3×10^3 conidia/ml. The MIC endpoint was 100% inhibition as compared to the growth control.
(§2) The lowest concentration (μg/mL) of either a terbinafine formulation of the invention or voriconazole, when used in combination, that is required to inhibit 100% of various isolates of Aspergillus flavus and Aspergillus fumigatus (MIC100) was determined (see Table 15). In this example, the terbinafine formulation of the invention comprises terbinafine formulated with a phospholipid and a surfactant.
(§3) Depicted in Table 15, the Fractional Inhibitory […] Index (FWD measures the degree of interaction between the two antifungal agents. A FICI value of greater than 4 indicates an antagonistic interaction; a FICI value of between 0.5 and 4 indicates no interaction; and a FICI value of less than 0.5 indicates a synergistic interaction. As depicted in Table 15, a lower concentration of either voriconazole or terbinafine formulation is generally able to inhibit 100% growth of various isolates of Aspergillus fumigatus and Aspergillus flavus when both antifungal agents are used in combination than the concentration required to inhibit 100% growth of various isolates of Aspergillus fumigatus and Aspergillus flavus when either voriconazole or terbinafine formulation is used individually.

Aspergillus fumigatus = experiment: as above; details: for MIC100, Combination: concentration of the agent when voriconazole and terbinafine formulation are used in combination; for MIC: Aspergillus fumigatus, agent used individually, read-out: MIC100, Individual
Description: as §1, §2, §3

Candida albicans = experiment: Minimum inhibitory concentration (MIC100), CLSI M38-A2 broth dilution
Description: Several strains of Aspergillus flavus, Aspergillus fumigatus, and Candida albicans were tested. Trichophyton rubrum MYA4498 and T. mentagrophytes MYA4439, the QC isolates approved by the Clinical and Laboratory Standards Institute (CLSI) for dermatophyte susceptibility testing, can also be tested.
as §1
The MIC range, MIC100 (defined as the minimum concentration required to inhibit 100% of the isolates tested), for the antifungal preparations of the invention and comparators was computed. The MFC range, MFC50, MFC90, and MFC100 for the antifungal preparations of the invention and comparators can also be computed.
Similarly, the lowest concentration (μg/mL) of a fluconazole formulation of the invention was compared to flucanozole alone that is required to inhibit 100% growth of various isolates of Candida albicans (MIC100) was determined (see Table 14). In this example, the fluconazole formulation of the invention comprises fluconazole formulated with a phosopholipid and a surfactant.

[1] = A. fumigatus strain MRL No. 2456
[2] = A. fumigatus strain MRL No. 2471
[3] = A. fumigatus strain MRL No. 2574
[4] = A. fumigatus strain MRL No. 16627
[5] = A. fumigatus strain MRL No. 16629

MIC100, Combination (Aspergillus flavus; A. flavus strain MRL No. 17842): 0.12 µg/mL | MIC100, Combination (Aspergillus flavus; A. flavus strain MRL No. 18736): 0.12 µg/mL | MIC100, Combination (Aspergillus flavus; A. flavus strain MRL No. 18743): 0.12 µg/mL | MIC100, Combination (Aspergillus flavus; A. flavus strain MRL No. 18744): 0.03 µg/mL | MIC (Aspergillus flavus; A. flavus strain MRL No. 17842): 0.25 µg/mL | MIC (Aspergillus flavus; A. flavus strain MRL No. 18736): 0.5 µg/mL | MIC (Aspergillus flavus; A. flavus strain MRL No. 18743): 0.5 µg/mL | MIC (Aspergillus flavus; A. flavus strain MRL No. 18744): 0.8 µg/mL | MIC100, Combination (Aspergillus fumigatus; [1]): 0.06 µg/mL | MIC100, Combination (Aspergillus fumigatus; [2]): 0.06 µg/mL | MIC100, Combination (Aspergillus fumigatus; [3]): 0.06 µg/mL | MIC100, Combination (Aspergillus fumigatus; [4]): 0.03 µg/mL | MIC100, Combination (Aspergillus fumigatus; [5]): 0.03 µg/mL | MIC (Aspergillus fumigatus; [1]): 0.12 µg/mL | MIC (Aspergillus fumigatus; [2]): 0.25 µg/mL | MIC (Aspergillus fumigatus; [3]): 0.25 µg/mL | MIC (Aspergillus fumigatus; [4]): 0.5 µg/mL | MIC (Aspergillus fumigatus; [5]): 0.12 µg/mL
SMILES: C[C@@H](c1ncncc1F)[C@](O)(Cn1cncn1)c1ccc(F)cc1F [Voriconazole, voriconazole]

MIC (Candida albicans; C. albicans strain MRL No. 648): > 64 µg/mL | MIC (Candida albicans; C. albicans strain MRL No. 9650): > 128 µg/mL | MIC (Candida albicans; C. albicans strain MRL No. 9698): 32 µg/mL (≈ 104 µM) | MIC (Candida albicans; C. albicans strain MRL No. 14461): 0.25 µg/mL (≈ 0.816 µM) | MIC (Candida albicans; C. albicans strain MRL No. 14465): 0.25 µg/mL (≈ 0.816 µM)
SMILES: OC(Cn1cncn1)(Cn1cncn1)c1ccc(F)cc1F [Flucanozole, fluconazole]
